From paper PMC5862592, “CDK8/19 inhibition induces premature G1/S transition and ATR-dependent cell death in prostate cancer cells” (Oncotarget, 2018) come the findings set out here.

Where two headings read alike, the source gives them in different places.

Test in all cases: biochemical
Common to all, as to design: KINOMEscan active site-directed competition binding assay (DiscoveRx), 456 kinases, per cent of control at 300 nM
What all share (conditions): read-out: Percent of Control (%)

In assay [1] the target is LIMK1 (Homo sapiens, UniProt P53667). The procedure: (§1) Kinase selectivity of T-474 and T-418 was evaluated at 300 nmol/L using a panel of 456 kinases at DiscoveRx (KINOMEscan). The platform employs an active site-directed competition binding assay to quantitatively measure interactions between test compounds and kinases. […] In VCaP prostate cancer cells, treatment with T-474 or T-418 suppressed the phosphorylation of the known CDK8 substrate STAT1 at Ser727 both in the absence and in the presence of IFN-γ (Figure 1B), which stimulates CDK8-mediated STAT1 phosphorylation.

Assay [2] concerns the target T1, MLCK (Homo sapiens, UniProt Q32MK0).
T1 construct: gene MYLK3
The procedure:
as §1

For assay [3], the target named is ACVR1B (Homo sapiens, UniProt P36896). The procedure:
as §1

In assay [4] the target is AURKC (Homo sapiens, UniProt Q9UQB9). The procedure: as §1
The target of assay [5] is CDKL1 (Homo sapiens, UniProt Q00532). The procedure: as §1
CDKL1, sequence (Q00532 whole entry): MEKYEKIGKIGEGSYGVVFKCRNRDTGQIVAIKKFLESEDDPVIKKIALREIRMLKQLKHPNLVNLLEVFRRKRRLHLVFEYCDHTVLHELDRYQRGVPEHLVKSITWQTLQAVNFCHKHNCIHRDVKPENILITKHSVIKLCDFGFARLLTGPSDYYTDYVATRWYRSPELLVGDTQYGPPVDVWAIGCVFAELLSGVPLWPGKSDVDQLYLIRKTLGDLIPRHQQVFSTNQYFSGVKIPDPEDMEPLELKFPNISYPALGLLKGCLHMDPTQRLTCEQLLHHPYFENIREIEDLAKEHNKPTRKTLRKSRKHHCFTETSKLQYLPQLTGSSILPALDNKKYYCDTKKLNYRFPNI
The target in assay [6] is PAK3 (Homo sapiens, UniProt O75914). The procedure:
as §1

In assay [7] the target is CDK7 (Homo sapiens, UniProt P50613). On the procedure:
as §1

Assay [8] concerns the target MKNK2 (Homo sapiens, UniProt Q9HBH9). The procedure: as §1
The target in assay [9] is MELK (Homo sapiens, UniProt Q14680). On the procedure: as §1
Assay [10] has as its target T2, LZK (Homo sapiens, UniProt O43283).
T2 construct: gene MAP3K13
The procedure: as §1

Assay [11] addresses MST1R (Homo sapiens, UniProt Q04912). The procedure: as §1
Assay [12] addresses MTOR (Homo sapiens, UniProt P42345). The procedure:
as §1

Assay [13] concerns the target NEK7 (Homo sapiens, UniProt Q8TDX7). The procedure: as §1
For assay [14], the target named is T3, SgK110 (Homo sapiens, UniProt P0C264).
T3 construct: gene SBK3
The procedure:
as §1

The target in assay [15] is CDK5 (Homo sapiens, UniProt Q00535). The procedure:
as §1

Assay [16] deals with NEK11 (Homo sapiens, UniProt Q8NG66). The procedure: as §1
Assay [17] deals with MAPKAPK2 (Homo sapiens, UniProt P49137). On the procedure:
as §1

Assay [18] concerns the target LTK (Homo sapiens, UniProt P29376). The procedure: as §1
Assay [19] deals with T4, MST3 (Homo sapiens, UniProt Q9Y6E0).
T4 construct: gene STK24
T4 sequence (Q9Y6E0 whole entry): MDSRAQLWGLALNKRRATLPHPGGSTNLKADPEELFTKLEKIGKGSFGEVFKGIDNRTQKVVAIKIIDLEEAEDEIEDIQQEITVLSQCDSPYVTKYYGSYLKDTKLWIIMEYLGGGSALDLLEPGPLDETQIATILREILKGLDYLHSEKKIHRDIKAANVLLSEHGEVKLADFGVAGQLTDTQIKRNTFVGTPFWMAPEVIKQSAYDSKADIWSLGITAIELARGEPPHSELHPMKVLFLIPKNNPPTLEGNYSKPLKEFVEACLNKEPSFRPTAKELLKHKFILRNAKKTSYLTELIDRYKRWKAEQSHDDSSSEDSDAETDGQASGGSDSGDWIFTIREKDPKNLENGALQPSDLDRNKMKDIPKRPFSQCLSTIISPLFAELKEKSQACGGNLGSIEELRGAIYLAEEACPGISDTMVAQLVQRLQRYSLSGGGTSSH
On the procedure:
as §1

Assay [20] deals with NLK (Homo sapiens, UniProt Q9UBE8). The procedure: as §1
NLK, sequence (Q9UBE8 whole entry): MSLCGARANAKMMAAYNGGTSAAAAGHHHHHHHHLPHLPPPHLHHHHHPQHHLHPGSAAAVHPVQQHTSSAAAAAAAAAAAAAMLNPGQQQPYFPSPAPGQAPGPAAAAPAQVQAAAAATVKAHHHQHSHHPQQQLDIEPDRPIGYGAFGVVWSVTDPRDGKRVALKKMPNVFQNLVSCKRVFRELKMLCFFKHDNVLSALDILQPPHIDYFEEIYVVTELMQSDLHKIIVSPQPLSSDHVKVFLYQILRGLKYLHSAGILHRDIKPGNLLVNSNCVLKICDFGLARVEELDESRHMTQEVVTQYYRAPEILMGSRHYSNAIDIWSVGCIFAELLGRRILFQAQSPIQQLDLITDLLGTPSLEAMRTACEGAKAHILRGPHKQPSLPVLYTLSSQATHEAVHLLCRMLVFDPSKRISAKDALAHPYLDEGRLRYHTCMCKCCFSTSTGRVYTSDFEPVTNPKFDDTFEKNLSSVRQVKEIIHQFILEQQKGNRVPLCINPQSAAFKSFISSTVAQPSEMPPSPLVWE
The target in assay [21] is NEK4 (Homo sapiens, UniProt P51957). On the procedure: as §1
In assay [22] the target is T5, TYK2(JH1domain-catalytic) (Homo sapiens, UniProt P29597).
T5 construct: JH1domain-catalytic
T5 sequence (P29597 whole entry): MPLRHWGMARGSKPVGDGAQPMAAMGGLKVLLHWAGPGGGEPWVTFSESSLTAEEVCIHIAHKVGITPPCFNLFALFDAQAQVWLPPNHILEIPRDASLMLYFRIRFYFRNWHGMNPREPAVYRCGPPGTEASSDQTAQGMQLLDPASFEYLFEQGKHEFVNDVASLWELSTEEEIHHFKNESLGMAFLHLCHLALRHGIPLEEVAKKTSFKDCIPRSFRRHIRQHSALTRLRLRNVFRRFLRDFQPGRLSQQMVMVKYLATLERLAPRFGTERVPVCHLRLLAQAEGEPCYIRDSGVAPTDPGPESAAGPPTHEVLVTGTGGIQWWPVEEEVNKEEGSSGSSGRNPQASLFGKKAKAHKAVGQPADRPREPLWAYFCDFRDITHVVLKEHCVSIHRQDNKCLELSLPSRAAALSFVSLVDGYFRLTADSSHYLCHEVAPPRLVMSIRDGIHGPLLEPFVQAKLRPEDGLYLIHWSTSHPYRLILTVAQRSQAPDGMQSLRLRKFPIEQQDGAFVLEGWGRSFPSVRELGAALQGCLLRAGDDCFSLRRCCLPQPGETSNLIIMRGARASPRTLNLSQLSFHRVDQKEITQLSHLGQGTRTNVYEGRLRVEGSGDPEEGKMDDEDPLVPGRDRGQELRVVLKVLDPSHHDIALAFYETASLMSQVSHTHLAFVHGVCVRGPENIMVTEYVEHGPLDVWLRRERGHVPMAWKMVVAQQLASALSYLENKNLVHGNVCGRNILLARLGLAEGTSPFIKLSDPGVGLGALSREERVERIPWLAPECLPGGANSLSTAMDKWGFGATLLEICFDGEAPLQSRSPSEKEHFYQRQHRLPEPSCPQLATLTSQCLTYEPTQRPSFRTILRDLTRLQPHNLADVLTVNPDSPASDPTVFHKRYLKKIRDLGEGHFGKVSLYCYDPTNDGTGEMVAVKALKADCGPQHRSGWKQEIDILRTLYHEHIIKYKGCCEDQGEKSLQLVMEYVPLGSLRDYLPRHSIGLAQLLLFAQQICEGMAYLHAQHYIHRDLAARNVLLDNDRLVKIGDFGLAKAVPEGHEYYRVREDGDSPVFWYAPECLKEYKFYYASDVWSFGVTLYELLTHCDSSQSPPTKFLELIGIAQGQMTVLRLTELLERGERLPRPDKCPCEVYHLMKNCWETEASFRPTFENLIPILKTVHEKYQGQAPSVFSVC
The procedure:
as §1

MST1R, sequence (Q04912 whole entry): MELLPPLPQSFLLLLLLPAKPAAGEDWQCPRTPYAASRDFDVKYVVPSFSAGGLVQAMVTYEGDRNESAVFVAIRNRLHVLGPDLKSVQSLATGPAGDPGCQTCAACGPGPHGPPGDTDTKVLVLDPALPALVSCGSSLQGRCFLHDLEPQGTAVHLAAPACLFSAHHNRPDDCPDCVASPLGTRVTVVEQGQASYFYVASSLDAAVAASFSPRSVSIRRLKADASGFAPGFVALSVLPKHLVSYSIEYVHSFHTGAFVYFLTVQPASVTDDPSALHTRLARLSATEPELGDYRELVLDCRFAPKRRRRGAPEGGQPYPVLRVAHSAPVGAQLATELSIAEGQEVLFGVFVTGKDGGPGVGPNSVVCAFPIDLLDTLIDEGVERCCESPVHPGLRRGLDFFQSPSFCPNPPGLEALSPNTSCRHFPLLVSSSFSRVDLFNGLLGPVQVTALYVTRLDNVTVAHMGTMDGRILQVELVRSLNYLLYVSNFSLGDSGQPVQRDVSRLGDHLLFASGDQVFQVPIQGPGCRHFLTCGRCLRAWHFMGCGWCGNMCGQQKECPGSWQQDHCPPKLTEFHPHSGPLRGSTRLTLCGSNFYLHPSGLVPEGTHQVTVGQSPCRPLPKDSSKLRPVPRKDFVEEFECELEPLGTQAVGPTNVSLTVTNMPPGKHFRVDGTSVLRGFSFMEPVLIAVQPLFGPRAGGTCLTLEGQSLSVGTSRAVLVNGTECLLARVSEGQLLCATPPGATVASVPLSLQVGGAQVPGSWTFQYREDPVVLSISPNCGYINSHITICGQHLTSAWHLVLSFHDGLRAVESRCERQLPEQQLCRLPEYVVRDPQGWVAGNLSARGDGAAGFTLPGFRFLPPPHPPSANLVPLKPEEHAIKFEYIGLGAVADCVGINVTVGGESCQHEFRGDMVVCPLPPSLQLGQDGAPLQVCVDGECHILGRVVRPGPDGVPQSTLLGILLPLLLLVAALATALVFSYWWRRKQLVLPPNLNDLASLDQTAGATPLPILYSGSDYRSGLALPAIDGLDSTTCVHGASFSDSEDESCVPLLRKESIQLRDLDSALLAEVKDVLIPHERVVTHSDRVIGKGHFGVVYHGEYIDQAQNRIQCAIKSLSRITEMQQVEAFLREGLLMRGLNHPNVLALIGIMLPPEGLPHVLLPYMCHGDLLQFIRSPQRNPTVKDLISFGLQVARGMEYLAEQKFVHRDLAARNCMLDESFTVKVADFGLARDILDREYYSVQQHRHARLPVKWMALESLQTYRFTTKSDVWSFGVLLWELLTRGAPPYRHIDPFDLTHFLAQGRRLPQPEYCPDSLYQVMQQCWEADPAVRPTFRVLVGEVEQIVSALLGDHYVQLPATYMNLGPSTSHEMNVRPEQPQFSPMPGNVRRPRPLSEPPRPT
MAPKAPK2, sequence (P49137 whole entry): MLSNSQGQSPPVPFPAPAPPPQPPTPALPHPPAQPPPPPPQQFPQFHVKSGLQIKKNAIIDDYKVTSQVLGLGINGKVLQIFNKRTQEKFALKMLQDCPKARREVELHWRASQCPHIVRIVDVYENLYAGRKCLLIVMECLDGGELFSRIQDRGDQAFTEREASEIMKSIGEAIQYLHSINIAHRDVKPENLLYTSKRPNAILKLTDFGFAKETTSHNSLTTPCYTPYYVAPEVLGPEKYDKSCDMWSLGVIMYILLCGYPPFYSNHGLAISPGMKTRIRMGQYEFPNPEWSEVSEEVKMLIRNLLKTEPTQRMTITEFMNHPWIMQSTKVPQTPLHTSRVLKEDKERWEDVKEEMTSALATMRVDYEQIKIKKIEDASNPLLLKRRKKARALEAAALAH
CDK7, sequence (P50613 whole entry): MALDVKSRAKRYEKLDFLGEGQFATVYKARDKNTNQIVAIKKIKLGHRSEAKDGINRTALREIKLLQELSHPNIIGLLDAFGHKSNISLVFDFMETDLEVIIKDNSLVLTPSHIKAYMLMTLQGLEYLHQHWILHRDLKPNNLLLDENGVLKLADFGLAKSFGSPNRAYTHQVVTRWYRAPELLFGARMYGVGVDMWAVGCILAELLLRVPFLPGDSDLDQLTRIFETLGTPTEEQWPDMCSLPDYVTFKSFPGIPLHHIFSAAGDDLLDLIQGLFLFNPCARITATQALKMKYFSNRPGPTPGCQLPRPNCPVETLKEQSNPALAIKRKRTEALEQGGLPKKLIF
CDK5, sequence (Q00535 whole entry): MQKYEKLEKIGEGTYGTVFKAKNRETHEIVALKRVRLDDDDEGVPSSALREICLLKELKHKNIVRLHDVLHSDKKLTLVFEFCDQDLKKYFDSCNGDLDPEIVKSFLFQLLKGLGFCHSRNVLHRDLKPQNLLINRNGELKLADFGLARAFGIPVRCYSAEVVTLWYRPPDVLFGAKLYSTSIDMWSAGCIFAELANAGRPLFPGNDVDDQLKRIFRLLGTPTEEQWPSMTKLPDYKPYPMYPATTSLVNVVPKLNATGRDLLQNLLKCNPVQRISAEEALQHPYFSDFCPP

Turning to `O=C(/C=C/c1cnccc1-c1ccc(F)cc1)Nc1ccc(CCc2nnco2)cc1` [T-418, (2E)-3-(4-(4-fluorophenyl)pyridin-3-yl)-N-(4-(2-(1,3,4-oxadiazol-2-yl)ethyl)phenyl)acrylamide], the remaining binding at 0.3 µM amounted to 100% in [1] (sheet T-418); 88% in assay [2] (sheet T-418); 77% in [3] (sheet T-418); 100% in [4] (sheet T-418); 88% in [5] (sheet T-418); 93% in assay [6] (sheet T-418). The remaining binding at 0.3 µM in assay [7] (sheet T-418) is 100%; in assay [8] (sheet T-418), 97%; in [9] (sheet T-418), 100%; in assay [10] (sheet T-418), 96%; in assay [11] (sheet T-418) it was 100%; in assay [12] (sheet T-418) it was 100%. Besides, the remaining binding at 0.3 µM in [13] (sheet T-418) was 100%; in [14] (sheet T-418) it was 73%; in assay [15] (sheet T-418), 80%; in assay [16] (sheet T-418) it was 100%; in [17] (sheet T-418), 100%; in [18] (sheet T-418), 100%. The remaining binding at 0.3 µM was found to be 100% in [19] (sheet T-418), 98% in assay [20] (sheet T-418), 100% in assay [21] (sheet T-418) and 40% in assay [22] (sheet T-418).

Turning to `Cc1ncccc1Oc1sc(C(N)=O)c2c1-c1c(cnn1C)CC2` [T-474, 1-methyl-8-((2-methylpyridin-3-yl)oxy)-4,5-dihydro-1H-thieno[3,4-g]indazole-6-carboxamide], the remaining binding at 0.3 µM in assay [1] was 100%; in [2], 100%; in [3], 77%; in assay [4] it was 100%; in assay [5], 76%; in assay [6], 100%. Moreover, the remaining binding at 0.3 µM in [7] amounted to 100%; in [8] it was 86%; in assay [9], 71%; in [10] it was 100%; in [11], 95%; in assay [12], 82%. The remaining binding at 0.3 µM stood at 100% in assay [13]; 57% in assay [14]; 94% in assay [15]; 100% in assay [16]; 100% in [17]; 100% in assay [18]. Further, the remaining binding at 0.3 µM in assay [19] worked out at 100%; in assay [20], 100%; in assay [21], 100%; in assay [22] it was 40%.
